Data as given in ChEMBL document CHEMBL3885861, “Open TG-GATES”.

Species on record: Rattus norvegicus
Test: Open TG-GATES - Regimen: Daily Repeat
Type: toxicity, organism-based, Sprague-Dawley
Set-up: regimen Daily Repeat, gender Male, age 6 weeks
Details: in vivo, po, route gavage; for APTT / Bas / Eos / Fbg / Hb / Ht / Lym / MCH / MCHC / MCV / Mono / Neu / PT / Plat / RBC / Ret / WBC: tissue Blood; for KIDNEY_L / KIDNEY_R / KIDNEY_TOTAL: tissue Kidney; for LIVER: tissue Liver; for ALT / AST / BUN / CRE / Ca / DBIL / GLC / IP / K / LDH / Na / PL / RALB / TBIL / TC / TG / TP / gamma-GTP / ALP: tissue Plasma
[1] = 15 mg/kg, 72 h, dose level Low, time 3 day
[2] = 15 mg/kg, […], dose level Low, time 7 day
[3] = 15 mg/kg, […], dose level Low, time 14 day
[4] = 15 mg/kg, […], dose level Low, time 28 day

## Oc1ncnc2[nH]ncc12 [ALLOPURINOL]
[1]
  TERMINAL_BW: 242.3 g
  APTT: 16.5 s
  Bas: 0%
  Eos: 0.8%
  Fbg: 229.2 mg/dL
  Hb: 13.9 g/dL
  Ht: 41.8%
  Lym: 81.2%
  MCH: 21.5 pg
  MCHC: 33.3%
  MCV: 64.8 fL
  Mono: 6%
  Neu: 11.4%
  PT: 12.1 s
  Plat: 91.2 x10_4/uL
  RBC: 646.4 x10_4/ul
  Ret: 7%
  WBC: 93.9 x10_2/uL
  KIDNEY_L: 1 g
  KIDNEY_R: 1 g
  KIDNEY_TOTAL: 2.1 g
  LIVER: 11.7 g
  ALT: 33.4 IU/L
  AST: 67.4 IU/L
  BUN: 18.4 mg/dL
  CRE: 0.5 mg/dL
  Ca: 11.3 mg/dL
  DBIL: 0.002 mg/dL
  GLC: 193 mg/dL
  IP: 8.4 mg/dL
  K: 4.8 meq/L
  LDH: 85.2 IU/L
  Na: 139.2 meq/L
  PL: 162.4 mg/dL
  RALB: 3.9 g/dL
  TBIL: 0.3 mg/dL
  TC: 81.4 mg/dL
  TG: 111 mg/dL
  TP: 6.1 g/dL
  gamma-GTP: 1.6 IU/L
[2]
  TERMINAL_BW: 256.8 g
  APTT: 16.7 s
  Bas: 0%
  Eos: 1%
  Fbg: 246.6 mg/dL
  Hb: 14.8 g/dL
  Ht: 44.6%
  Lym: 83.2%
  MCH: 21.1 pg
  MCHC: 33.2%
  MCV: 63.5 fL
  Mono: 3.4%
  Neu: 12.6%
  PT: 11.8 s
  Plat: 112.6 x10_4/uL
  RBC: 702.2 x10_4/ul
  Ret: 4.6%
  WBC: 108.6 x10_2/uL
  KIDNEY_L: 1.2 g
  KIDNEY_R: 1.2 g
  KIDNEY_TOTAL: 2.3 g
  LIVER: 11.7 g
  ALP: 753 IU/L
  ALT: 25.2 IU/L
  AST: 56.6 IU/L
  BUN: 21.6 mg/dL
  CRE: 0.6 mg/dL
  Ca: 11.3 mg/dL
  DBIL: 0.012 mg/dL
  GLC: 192.6 mg/dL
  IP: 8.6 mg/dL
  K: 4.5 meq/L
  Na: 137.8 meq/L
  PL: 156 mg/dL
  RALB: 4.2 g/dL
  TBIL: 0.3 mg/dL
  TC: 81.2 mg/dL
  TG: 85.2 mg/dL
  TP: 6.2 g/dL
  gamma-GTP: 2.4 IU/L
[3]
  TERMINAL_BW: 323.2 g
  APTT: 16.8 s
  Bas: 0%
  Eos: 0.8%
  Fbg: 242.8 mg/dL
  Hb: 14.6 g/dL
  Ht: 44%
  Lym: 81%
  MCH: 20.5 pg
  MCHC: 33.2%
  MCV: 61.7 fL
  Mono: 4.8%
  Neu: 13.4%
  PT: 11.7 s
  Plat: 111.9 x10_4/uL
  RBC: 714 x10_4/ul
  Ret: 4.4%
  KIDNEY_L: 1.3 g
  KIDNEY_R: 1.3 g
  KIDNEY_TOTAL: 2.6 g
  LIVER: 15.3 g
  ALP: 823.2 IU/L
  ALT: 27.2 IU/L
  AST: 56.8 IU/L
  BUN: 19.4 mg/dL
  CRE: 0.6 mg/dL
  DBIL: 0 mg/dL
  GLC: 185.4 mg/dL
  IP: 7.5 mg/dL
  K: 4.4 meq/L
  LDH: 74.8 IU/L
  Na: 138.8 meq/L
  PL: 158.6 mg/dL
  RALB: 3.9 g/dL
  TBIL: 0.2 mg/dL
  TC: 69.8 mg/dL
  TG: 161.6 mg/dL
  TP: 6.2 g/dL
  gamma-GTP: 2 IU/L
[4]
  TERMINAL_BW: 383.9 g
  APTT: 16.6 s
  Bas: 0%
  Eos: 1%
  Fbg: 225.8 mg/dL
  Hb: 15.4 g/dL
  Ht: 46%
  Lym: 83.8%
  MCH: 19.4 pg
  MCHC: 33.6%
  MCV: 57.8 fL
  Mono: 2.8%
  Neu: 12.4%
  PT: 12.1 s
  RBC: 795.8 x10_4/ul
  Ret: 2.4%
  WBC: 167 x10_2/uL
  KIDNEY_L: 1.4 g
  KIDNEY_R: 1.4 g
  KIDNEY_TOTAL: 2.9 g
  LIVER: 16.6 g
  ALP: 525.8 IU/L
  ALT: 29.4 IU/L
  AST: 59.2 IU/L
  BUN: 20.6 mg/dL
  CRE: 0.6 mg/dL
  Ca: 11 mg/dL
  DBIL: 0.014 mg/dL
  GLC: 188.4 mg/dL
  IP: 6.9 mg/dL
  K: 4.8 meq/L
  LDH: 74.4 IU/L
  Na: 139.6 meq/L
  PL: 153.4 mg/dL
  RALB: 4.1 g/dL
  TBIL: 0.3 mg/dL
  TC: 70 mg/dL
  TG: 160.6 mg/dL
  TP: 6.6 g/dL
  gamma-GTP: 2.8 IU/L
50 mg/kg, 72 h, dose level Middle, time 3 day
  TERMINAL_BW: 239.5 g
